Source: patent US20250353873A1, “COMPOUNDS AND METHODS FOR MODULATING APOE EXPRESSION” (Ionis Pharmaceuticals, Inc., priority 2024, published 2025)
Where “and” joins values, the source holds several entries; their conditions need not be identical. Equal entries are not always repeated. e = 2'-O-(2-methoxyethyl) (MOE); k = constrained ethyl (cEt); d = 2'-deoxy (DNA)

Tests used:
[1] = system: BJAB cells; conditions: known behaviour in the assay; cited from earlier work
[2] = system: human APOE RNA; experiment: Activity in APOE C57BL/6NTac-Apoeem7250 knock-in mice, single ICV bolus, 20 weeks (Example 13); type: in vivo; conditions: single ICV bolus 300 μg, 20 weeks post treatment, normalized to mouse Ppia
Summary of the method: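 Knock-in mice (n=4) given a single ICV bolus of 300 μg oligonucleotide, PBS as control. After 20 weeks, human APOE RNA in cortex and spinal cord measured by RT-qPCR, normalized to mouse Ppia, expressed as % of PBS-treated animals.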

[3] = system: human APOE RNA; experiment: Activity in APOE 1549 knock-in mice, single ICV bolus, 2 weeks (Example 7); type: in vivo; conditions: single ICV bolus of 300 μg, two weeks post treatment, Table 16
Summary of the method: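 Human APOE knock-in mice (model 41549), 2 per group, given a single 300 µg ICV bolus of oligonucleotide, with PBS as control. After 2 weeks, APOE RNA in cortex and spinal cord measured by RT-qPCR, normalized to mouse Ppia, and expressed as % of PBS control.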

[4] = system: human APOE RNA; experiment: Dose-dependent inhibition of human APOE RNA in HepG2 cells, electroporation, 50,000 cells per well, RT-PCR normalized to GAPDH (Example 4, Tables 8-10); type: cell-based; conditions: HepG2, electroporation, 16-hour treatment
Summary of the method: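 HepG2 cells, 50,000 per well, electroporated with modified oligonucleotide at various concentrations. APOE RNA quantified by RT-PCR with human primer probe set RTS3073, normalized to GAPDH. Values are percent APOE RNA relative to untreated control cells.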

[5] = system: BJAB cells
Method: Human APOE modified oligonucleotides were tested for potential immunostimulatory properties in an in vitro human BJAB activation assay.
Human Burkitt lymphoma B cells, BJAB cells (DSMZ, Cat #ACC 757) were cultured in RPMI1640 medium containing 20% fetal bovine serum at 37° C. and 5% CO2. Cells were maintained at a density of 0.5-0.7×10^6 cells per milliliter. Cells were transferred to 50 mL conical Falcon tubes and centrifuged at 330 RCF for 5 minutes before being resuspended at a concentration of 7.5×10^4 cells per milliliter in RPMI culture medium containing penicillin and streptomycin. 50 μL of the cell suspension was added to a v-bottom tissue culture treated 96-well microplate. 11 μl of 10× concentrated modified oligonucleotides was then added to the plate for a final concentration of 1.6 μM and incubated for 24 hours at 37° C. and 5% CO2.
After a treatment period of 24 hours, total RNA was isolated from the cells and CCL22 RNA levels were measured by quantitative real-time RT-PCR. CCL22 RNA levels were measured by human primer-probe set RTS49260 (forward sequence [sequence], designated herein as SEQ ID NO: 19; reverse sequence [sequence], designated herein as SEQ ID NO: 20; probe sequence [sequence], designated herein as SEQ ID NO: 21). CCL22 RNA levels were normalized to total RNA content, as measured by GAPDH. Human GAPDH was measured using the human primer-probe set RTS104 (forward sequence [sequence], designated herein as SEQ ID NO: 10; reverse sequence [sequence], designated herein as SEQ ID NO: 11; probe sequence [sequence], designated herein as SEQ ID NO: 12). Levels of CCL22 RNA is presented log fold increase of CCL22, relative to untreated control cells (UTC). The assignment of the immunostimulatory properties of the test compounds is based on the immunostimulatory properties of the internal control compounds in each assay.

[6] = system: human APOE RNA; experiment: Activity in APOE C57BL/6NTac-Apoeem7250 knock-in mice, single ICV bolus, 8 weeks (Example 11); type: in vivo
Summary of the method: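 Human APOE knock-in C57BL/6NTac mice given one ICV bolus of 300 μg oligonucleotide; PBS-dosed group as control. At 8 weeks, cortex and spinal cord RNA measured by qRT-PCR (human probe RTS3073), normalized to mouse Ppia, expressed as % of PBS control.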

Substance: Compound No. 104838: 5-10-5 MOE gapmer, GCTGATTAGAGAGAGGTCCC, internal standard (negative control) (sugars from the 5' end e5 d10 e5, backbone and methylation of C not given here)
- responder class for CCL22 release in the BJAB assay (internal standard) [1]: non-responder (non-inflammatory)

Substance: Compound No. 1517891: comparator of WO 2022/066956; ACTTGGTGAATCTTTATTAA, sugar eeeeeddddddddddeeeee, linkages sooosssssssssssooss (MOE gapmer, mixed PS/PO linkages, chemistry not fully specified) [reference compound]
- APOE RNA (% control) Cortex ([2]; cortex): 93 % control and 97 % control
- APOE RNA (% control) Spinal Cord ([2]; spinal cord): 92 % control and 71 % control
- APOE RNA (% control) Cortex ([3]; cortex): 49 % control
- APOE RNA (% control) Spinal Cord ([3]; spinal cord): 65 % control
- APOE RNA (% UTC) ([4]; 5 nM): 82 % UTC
- APOE RNA (% UTC) ([4]; 13 nM): 75 % UTC
- APOE RNA (% UTC) ([4]; 33 nM): 81 % UTC
- APOE RNA (% UTC) ([4]; 82 nM): 83 % UTC
- APOE RNA (% UTC) ([4]; 205 nM): 65 % UTC
- APOE RNA (% UTC) ([4]; 512 nM): 48 % UTC
- APOE RNA (% UTC) ([4]; 1,280 nM): 36 % UTC
- APOE RNA (% UTC) ([4]; 3,200 nM): 36 % UTC
- APOE RNA (% UTC) ([4]; 8,000 nM): 17 % UTC
- IC50 [4]: 0.55 µM
- inflammatory response in human BJAB cells [5]: mildly inflammatory
- reduction of human APOE RNA in the cortex ([6]; APOE knock-in mouse model, 8 weeks post administration, assay of Example 11): 44%
- APOE RNA (% control) Cortex ([6]; cortex, single ICV bolus 300 μg, 8 weeks post treatment, normalized to mouse Ppia): 56 % control
- APOE RNA (% control) Spinal Cord ([6]; spinal cord, single ICV bolus 300 μg, 8 weeks post treatment, normalized to mouse Ppia): 29 % control

Substance: Compound No. 735746: 3-10-3 cEt gapmer, TTCAAGGTGAACTGTT, internal standard (sugars from the 5' end k3 d10 k3, backbone and methylation of C not given here)
- responder class for CCL22 release in the BJAB assay (internal standard) [1]: moderate responder (mildly inflammatory)

Substance: Compound No. 353512: 3-14-3 MOE gapmer, TCCCATTTCAGGAGACCTGG, internal standard (sugars from the 5' end e3 d14 e3, backbone and methylation of C not given here)
- responder class for CCL22 release in the BJAB assay (internal standard) [1]: high responder (inflammatory)

Substance: Compound No. 785674: kk-9-eeekk cEt gapmer with MOE modifications, TATTTCTGCTCCAGGT, internal standard (sugars from the 5' end k2 d9 e3 k2, backbone and methylation of C not given here)
- responder class for CCL22 release in the BJAB assay (internal standard) [1]: high responder (inflammatory)
